Measured values published in BindingDB's records for doi:10.7270/Q2TX3CTT (Broad Institute, 2010).

Biological target: Glycogen synthase kinase-3 beta (Homo sapiens, UniProt P49841)
Assay: GSK3beta kinase inhibitor potency, dose response, biochemical, luminescence, cell-free homogeneous, retest (AID 434954)

Sequence of Glycogen synthase kinase-3 beta (P49841 whole entry): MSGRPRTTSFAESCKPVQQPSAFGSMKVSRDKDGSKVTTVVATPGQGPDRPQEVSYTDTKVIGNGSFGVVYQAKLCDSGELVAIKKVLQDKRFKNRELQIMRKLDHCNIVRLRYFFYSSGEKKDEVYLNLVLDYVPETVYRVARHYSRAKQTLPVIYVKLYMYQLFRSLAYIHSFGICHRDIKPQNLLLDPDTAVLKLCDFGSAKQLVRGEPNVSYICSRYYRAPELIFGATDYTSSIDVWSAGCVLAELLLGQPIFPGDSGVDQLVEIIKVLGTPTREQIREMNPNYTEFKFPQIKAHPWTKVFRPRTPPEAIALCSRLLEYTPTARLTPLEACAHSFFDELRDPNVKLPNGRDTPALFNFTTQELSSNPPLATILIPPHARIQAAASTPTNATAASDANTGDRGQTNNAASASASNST

Row | SMILES | EC50
1 | CCOC(=O)c1c(C)[nH]c(C)c1C(=O)COC(=O)CNC(=O)c1ccc(OCC)cc1 [4-[2-[2-[[(4-ethoxyphenyl)-oxomethyl]amino]-1-oxoethoxy]-1-oxoethyl]-2,5-dimethyl-1H-pyrrole-3-carboxylic acid ethyl ester] | > 300 µM
2 | C[C@]12C=CC(=O)C=C1CC[C@@H]1C2C(O)C[C@@]2(C)C1CC[C@]2(O)C(=O)COC(=O)CCC(=O)O (stereo partly drawn) [4-[2-[(8S,10R,11S,13S,17R)-11,17-dihydroxy-10,13-dimethyl-3-oxo-7,8,9,11,12,14,15,16-octahydro-6H-cyclopenta[a]phenanthren-17-yl]-2-oxoethoxy]-4-oxobutanoic acid] | > 300 µM
3 | COC(=O)c1ccc(NC(=O)CCN2CCN(Cc3ccccc3)CC2)cc1 [4-[3-(4-Benzyl-piperazin-1-yl)-propionylamino]-benzoic acid methyl ester] | > 300 µM
4 | Clc1ccccc1CN1CCN(c2cccc3[nH]ccc23)CC1 [4-[4-[(2-chlorophenyl)methyl]piperazin-1-yl]-1H-indole] | > 300 µM
5 | O=Cc1ccc(Oc2nc(Cl)ncc2F)cc1 [4-[(2-chloro-5-fluoro-4-pyrimidinyl)oxy]benzaldehyde] | > 300 µM
6 | CC1=C(C#N)C(=O)NC(=O)C1=NNc1ccc(S(N)(=O)=O)cc1 [4-[(2Z)-2-(5-cyano-4-methyl-2,6-dioxopyridin-3-ylidene)hydrazinyl]benzenesulfonamide] | 0.917 µM
7 | NS(=O)(=O)c1ccc(N=Nc2cnc(O)c(O)c2)cc1 [4-[(5,6-dioxo-3-pyridinyl)hydrazo]benzenesulfonamide] | > 300 µM
8 | Cc1nc(C)c(-c2csc(Nc3ccc(C(=O)O)c(O)c3)n2)s1 [4-[[4-(2,4-dimethyl-1,3-thiazol-5-yl)-1,3-thiazol-2-yl]amino]-2-hydroxybenzoic acid] | > 300 µM
9 | CC(C)[C@H](CO)Nc1nc(NCc2ccc(S(N)(=O)=O)cc2)c2ncn(C(C)C)c2n1 [4-[[[2-[[(2R)-1-hydroxy-3-methylbutan-2-yl]amino]-9-propan-2-yl-6-purinyl]amino]methyl]benzenesulfonamide] | 39.6 µM
10 | NC(=S)c1cn(C2OC(CO)C(O)C2O)c2ncnc(N)c12 (centres undefined) [4-amino-7-[3,4-dihydroxy-5-(hydroxymethyl)oxolan-2-yl]pyrrolo[2,3-d]pyrimidine-5-carbothioamide] | 12 µM
11 | N#Cc1c(Nc2ccccc2)sc(C(=O)c2ccccc2)c1N [4-azanyl-2-phenylazanyl-5-(phenylcarbonyl)thiophene-3-carbonitrile] | 52.9 µM
12 | CCCCc1cc(=O)oc2cc(O)cc(O)c12 [4-butyl-5,7-dihydroxy-2H-chromen-2-one] | 15.2 µM
13 | C=C(Cl)COc1ccc2c(CCCC)cc(=O)oc2c1 [4-butyl-7-(2-chloranylprop-2-enoxy)chromen-2-one] | > 300 µM

Further lines, results first:

Row | EC50 | SMILES
14 | > 300 µM | Cn1c(SCc2cccc(Br)c2)nnc1-c1ccncc1 [4-[5-(3-Bromo-benzylsulfanyl)-4-methyl-4H-[1,2,4]triazol-3-yl]-pyridine]
15 | > 300 µM | COC(=O)c1ccc(Nc2nc(-c3ccncc3)nc3ccccc23)cc1 [4-[(2-pyridin-4-yl-4-quinazolinyl)amino]benzoic acid methyl ester]
16 | 51.7 µM | Cc1ccc(Sc2ccc(CN=O)cc2[N+](=O)[O-])cc1 [4-[(4-methylphenyl)thio]-3-nitrobenzaldehyde oxime]
17 | > 300 µM | Cc1ccc(-c2nn(-c3ccccc3)cc2C=Nn2c(-c3ccncc3)n[nH]c2=S)cc1 [4-[[3-(4-methylphenyl)-1-phenyl-4-pyrazolyl]methylideneamino]-3-pyridin-4-yl-1H-1,2,4-triazole-5-thione]
18 | > 300 µM | CS(=O)(=O)N(Cc1ccccc1)c1ccc(C(=O)Nc2ccccc2Sc2ccccc2)cc1 [4-[methylsulfonyl-(phenylmethyl)amino]-N-(2-phenylsulfanylphenyl)benzamide]
19 | > 300 µM | N#Cc1c(N)nc(-c2ccccc2)nc1-c1ccccc1 [4-amino-2,6-diphenyl-5-pyrimidinecarbonitrile]
